ChEMBL document CHEMBL4354864, “Bicyclic α-Iminophosphonates as High Affinity Imidazoline I2 Receptor Ligands for Alzheimer's Disease” (J Med Chem, 2020)

How the values were obtained:
[1] = Displacement of [3H]2-BFI from I2IR in human brain frontal cortex incubated for 45 mins by liquid scintillation spectrometry; assay type: tissue-based
[2] = target: Nischarin (Homo sapiens, UniProt Q9Y2I1); assay: Displacement of [3H]clonidine from I1IR in human brain frontal cortex in presence of adrenaline incubated for 45 mins by liquid scintillation spectrometry; assay type: tissue-based
Nischarin, sequence (Q9Y2I1 whole entry): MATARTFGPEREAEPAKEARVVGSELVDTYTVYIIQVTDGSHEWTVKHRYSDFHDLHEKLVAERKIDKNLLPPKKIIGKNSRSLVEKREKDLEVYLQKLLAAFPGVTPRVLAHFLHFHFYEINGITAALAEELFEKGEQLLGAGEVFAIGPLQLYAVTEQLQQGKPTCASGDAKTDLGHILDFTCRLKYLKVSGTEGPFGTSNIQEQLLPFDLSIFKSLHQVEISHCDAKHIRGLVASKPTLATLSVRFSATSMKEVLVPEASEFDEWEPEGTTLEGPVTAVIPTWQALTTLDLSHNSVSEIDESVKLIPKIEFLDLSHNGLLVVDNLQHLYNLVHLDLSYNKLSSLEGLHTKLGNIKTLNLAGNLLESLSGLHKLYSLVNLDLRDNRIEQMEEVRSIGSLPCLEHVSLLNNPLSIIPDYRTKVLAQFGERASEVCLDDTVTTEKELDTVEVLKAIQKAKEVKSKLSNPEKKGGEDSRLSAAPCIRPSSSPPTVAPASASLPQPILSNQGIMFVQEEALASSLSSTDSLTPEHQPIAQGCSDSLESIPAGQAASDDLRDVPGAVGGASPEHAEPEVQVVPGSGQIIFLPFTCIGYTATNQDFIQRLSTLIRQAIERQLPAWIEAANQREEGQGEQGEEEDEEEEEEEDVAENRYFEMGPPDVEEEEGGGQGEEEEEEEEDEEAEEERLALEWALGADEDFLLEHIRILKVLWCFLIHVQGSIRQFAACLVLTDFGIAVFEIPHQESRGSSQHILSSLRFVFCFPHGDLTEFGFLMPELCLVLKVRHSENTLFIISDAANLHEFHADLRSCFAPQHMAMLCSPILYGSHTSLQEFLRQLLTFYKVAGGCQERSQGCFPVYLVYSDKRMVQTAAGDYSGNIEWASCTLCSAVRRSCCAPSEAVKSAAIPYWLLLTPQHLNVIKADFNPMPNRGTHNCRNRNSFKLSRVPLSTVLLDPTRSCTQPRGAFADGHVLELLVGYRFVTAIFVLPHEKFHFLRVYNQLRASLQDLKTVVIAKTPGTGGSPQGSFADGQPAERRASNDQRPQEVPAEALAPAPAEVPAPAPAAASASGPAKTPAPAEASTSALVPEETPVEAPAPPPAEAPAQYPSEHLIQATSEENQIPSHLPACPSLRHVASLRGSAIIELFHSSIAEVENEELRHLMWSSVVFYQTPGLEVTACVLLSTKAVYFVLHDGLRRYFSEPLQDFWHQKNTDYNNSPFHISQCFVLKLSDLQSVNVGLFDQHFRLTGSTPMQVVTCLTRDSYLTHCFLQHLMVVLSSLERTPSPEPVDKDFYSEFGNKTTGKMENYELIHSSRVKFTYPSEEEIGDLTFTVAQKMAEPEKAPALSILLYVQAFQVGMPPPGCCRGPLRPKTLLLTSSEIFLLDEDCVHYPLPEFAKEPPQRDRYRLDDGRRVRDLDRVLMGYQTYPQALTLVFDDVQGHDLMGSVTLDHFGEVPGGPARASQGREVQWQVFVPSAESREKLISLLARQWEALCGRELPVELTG

[3] = target: T1, Alpha-2A adrenergic receptor (Homo sapiens, UniProt P08913); assay: biochemical
T1 sequence (P08913 whole entry): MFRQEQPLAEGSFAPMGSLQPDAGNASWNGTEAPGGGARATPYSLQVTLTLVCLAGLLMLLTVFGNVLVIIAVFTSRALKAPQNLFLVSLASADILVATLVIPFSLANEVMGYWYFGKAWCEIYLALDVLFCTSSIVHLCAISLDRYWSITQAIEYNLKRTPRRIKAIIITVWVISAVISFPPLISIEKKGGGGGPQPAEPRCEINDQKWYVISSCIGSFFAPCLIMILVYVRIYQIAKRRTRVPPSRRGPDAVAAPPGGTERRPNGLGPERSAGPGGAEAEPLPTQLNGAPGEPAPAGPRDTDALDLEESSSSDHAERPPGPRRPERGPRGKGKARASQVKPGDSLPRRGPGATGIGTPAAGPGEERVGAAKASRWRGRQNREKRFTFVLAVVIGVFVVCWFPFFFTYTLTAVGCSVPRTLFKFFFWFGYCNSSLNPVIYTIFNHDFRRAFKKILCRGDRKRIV
Description: Displacement of [3H]RX821002 from alpha2-AR in human brain frontal cortex incubated for 30 mins by liquid scintillation spectrometry

[4] = species: Homo sapiens; assay: Displacement of [3H]2-BFI from I2IR in human brain frontal cortex assessed as binding affinity at high affinity site incubated for 45 mins by liquid scintillation spectrometry relative to control; assay type: tissue-based; parameters: concentration or dose not given beside the values
[5] = species: Homo sapiens; assay: Selectivity ratio of Ki for alpha2-AR high binding site in human brain frontal cortex to Ki for I2IR high binding site in human brain frontal cortex
[6] = Displacement of [3H]2-BFI from I2IR in human brain frontal cortex assessed as binding affinity at high affinity site incubated for 45 mins by liquid scintillation spectrometry; assay type: tissue-based
[7] = Displacement of [3H]2-BFI from I2IR in human brain frontal cortex assessed as binding affinity at low affinity site incubated for 45 mins by liquid scintillation spectrometry; assay type: tissue-based
[8] = species: Homo sapiens; assay: Selectivity index, […] for alpha2-AR human brain frontal cortex […] in human brain frontal cortex

| SMILES | pKi [1] | IC50 [2] [µM] | Ki [3] [µM] | other results |
| --- | --- | --- | --- | --- |
| CCOP(=O)(OCC)C1N=CC2C(=O)N(c3ccc(F)c(Cl)c3)C(=O)C21 (racemic) | < 3 | > 1000 | 0.00324 |  |
| CCOP(=O)(OCC)C1(c2ccccc2)N=CC2C(=O)N(c3cccc([N+](=O)[O-])c3)C(=O)C21 (racemic) | 6.81 | 5.5 |  |  |
| CCOP(=O)(OCC)C1(c2ccccc2)N=CC2C(=O)N(c3cccc4ccccc34)C(=O)C21 (racemic) | 3.11 |  | > 1000 |  |
| CCOP(=O)(OCC)C1(c2ccccc2)N=CC2C(=O)N(c3ccc(OC)cc3)C(=O)C21 (racemic) | 6.65 | 603 |  |  |
| C(=C\c1ccccc1)/C1=NCCN1 [TRACIZOLINE] |  |  | 46.8 | Activity [4]: 38%; Ratio Ki [5]: 14100; Ki [6]: 0.0033 µM; pKi [6]: 8.48; pKi [7]: 6.48 |
| c1ccc2oc(-c3ncc[nH]3)cc2c1 |  |  | 6.76 | Activity [4]: 49%; Ratio Ki [5]: 7240; pKi [6]: 9.03; pKi [7]: 5.25 |
| CCOP(=O)(OCC)C1(c2ccccc2)N=CC2C(=O)N(c3ccc(Oc4ccccc4)cc3)C(=O)C21 (racemic) | 6.96 |  |  |  |
| CCOP(=O)(OCC)C1(c2ccccc2)N=CC2C(=O)N(C3CCCCC3)C(=O)C21 (racemic) |  | 0.0288 |  |  |
| CCCN1C(=O)C2C=NC(c3ccccc3)(P(=O)(OCC)OCC)C2C1=O (racemic) | 4.02 |  |  |  |
| CCOP(=O)(OCC)C1N=CC2C(=O)N(C3CCCCC3)C(=O)C21 (racemic) | 5.74 | 7.24 | 0.000324 | Ratio pKi [8]: 5 |
| CCOP(=O)(OCC)C1(c2ccccc2)N=CC2C(=O)N(CCc3ccc(F)cc3)C(=O)C21 (racemic) | < 3 |  | 2.24 |  |
| CCOP(=O)(OCC)C1N=CC2C(=O)N(c3ccc(OC)cc3)C(=O)C21 (racemic) | 5.11 | 0.00813 | 5.37e-05 |  |
| CCOP(=O)(OCC)C1(c2ccc(OC)cc2)N=CC2C(=O)N(c3ccccc3)C(=O)C21 (racemic) | 3.39 |  | 141 |  |
| CCOP(=O)(OCC)C1(c2ccccc2)N=CC2C(=O)N(c3ccc(C(F)(F)F)cc3)C(=O)C21 (racemic) | < 3 |  | 18.6 |  |
| c1ccc2oc(C3=NCCN3)cc2c1 |  |  | 0.229 | Activity [4]: 21%; Ratio Ki [5]: 1700; Ki [6]: 0.00013 µM; pKi [6]: 9.87; pKi [7]: 7.94 |
| CCOP(=O)(OCC)C1(c2ccccc2)N=CC2C(=O)N(C(C)(C)C)C(=O)C21 (racemic) | 7.35 |  | 0.17 | Ratio pKi [8]: 3 |
| CCOP(=O)(OCC)C1(c2ccccc2)N=CC2C(=O)N(c3ccccc3)C(=O)C21 (racemic) | 10.28 | 0.182 |  |  |
| CCOP(=O)(OCC)C1(c2ccccc2)N=CC2C(=O)N(Cc3ccccc3)C(=O)C21 (racemic) | 5.26 | 1.35 |  |  |
| CCOP(=O)(OCC)C1(c2ccccc2)N=CC2C(=O)N(CC)C(=O)C21 (racemic) | 8.37 |  | 1.41 | Activity [4]: 62%; Ratio Ki [5]: 1260; Ratio pKi [8]: 331; pKi [6]: 8.95; pKi [7]: 5.86 |
| CCOP(=O)(OCC)C1(c2ccccc2)N=CC2C(=O)N(c3ccc(Cl)cc3)C(=O)C21 (racemic) | < 3 |  |  |  |
| CCOP(=O)(OCC)C1N=CC2C(=O)N(C)C(=O)C21 (racemic) | 6.79 | 7.41 | 0.00447 |  |
| CCOP(=O)(OCC)C1(c2ccccc2)N=CC2C(=O)N(c3cccnc3Cl)C(=O)C21 (racemic) | 7.96 |  | > 1000 | Ratio pKi [8]: 91200 |

| SMILES | pKi [1] | IC50 [2] [µM] | Ki [3] [µM] | other results |
| --- | --- | --- | --- | --- |
| CCOP(=O)(OCC)C1(c2ccccc2)N=CC2C(=O)N(c3cc(Cl)cc(Cl)c3)C(=O)C21 (racemic) | 5.81 |  | 0.603 |  |
| CCOP(=O)(OCC)C1(Cc2ccc(F)cc2)N=CC2C(=O)N(c3ccccc3)C(=O)C21 (racemic) | 5.35 |  | 0.0631 |  |
| COc1nc(C)nc(Cl)c1N=C1NCCN1 [MOXONIDINE] |  | 0.00355 |  |  |
| CCOP(=O)(OCC)C1(c2ccccc2)N=CC2C(=O)N(CC34CC5CC(CC(C5)C3)C4)C(=O)C21 (racemic) | 7.01 |  | 49 | Ratio pKi [8]: 501 |
| CCOP(=O)(OCC)C1(c2ccccc2)N=CC2C(=O)N(CCc3ccccc3)C(=O)C21 (racemic) | 6.35 | 0.0105 | 170 | Ratio pKi [8]: 380 |
| CCOP(=O)(OCC)C1(c2ccccc2)N=CC2C(=O)N(C3Cc4ccccc4C3)C(=O)C21 (racemic) | 3.84 |  | 363 | Activity [4]: 22%; Ratio Ki [5]: 2690; Ratio pKi [8]: 2; pKi [6]: 6.87; pKi [7]: 3.2 |
| CCOP(=O)(OCC)C1(c2ccccc2)N=CC2C(=O)N(c3cccc(C(F)(F)F)c3)C(=O)C21 (racemic) | < 3 |  |  |  |
| CCOP(=O)(OCC)C1(c2ccccc2)N=CC2C(=O)N(c3ccccc3Cl)C(=O)C21 (racemic) | 5.09 |  | 0.708 | Activity [4]: 25%; Ratio Ki [5]: 24; pKi [6]: 7.53; pKi [7]: 4.74 |
| CCOP(=O)(OCC)C1(c2ccc(F)cc2)N=CC2C(=O)N(c3ccc(F)c(Cl)c3)C(=O)C21 (racemic) | 7.55 |  | 417 | Ratio pKi [8]: 14800 |
| CCOP(=O)(OCC)C1(c2ccccc2)N=CC2C(=O)N(c3ccc(C)cc3)C(=O)C21 (racemic) | 5.44 |  |  |  |
| CCOP(=O)(OCC)C1(c2ccccc2)N=CC2C(=O)N(c3c(Cl)cc(Cl)cc3Cl)C(=O)C21 (racemic) | < 3 |  | 6.92 |  |
| CCOP(=O)(OCC)C1(c2ccccc2)N=CC2C(=O)N(c3ccc(Cl)c(Cl)c3)C(=O)C21 (racemic) | < 3 |  |  |  |
| CCOP(=O)(OCC)C1(c2ccccc2)N=CC2C(=O)N(C)C(=O)C21 (racemic) | 7.97 | 0.646 | 1.17 | Ratio pKi [8]: 110 |
| CCOP(=O)(OCC)C1(Cc2ccccc2)N=CC2C(=O)N(c3ccccc3)C(=O)C21 (racemic) | 6.59 | 7.59 | 115 | Ratio pKi [8]: 447 |
| CCOP(=O)(OCC)C1(c2ccc(F)cc2)N=CC2C(=O)N(c3ccccc3)C(=O)C21 (racemic) | < 3 |  | 0.17 |  |
| CCOP(=O)(OCC)C1(c2ccccc2)N=CC2C(=O)N(c3ccc(-c4ccccc4)cc3)C(=O)C21 (racemic) | 7.9 | 0.0646 |  |  |
| CCOP(=O)(OCC)C1(c2ccccc2)N=CC2C(=O)N(c3cc([N+](=O)[O-])ccc3C)C(=O)C21 (racemic) | < 3 |  |  |  |
| CCOP(=O)(OCC)C1(c2ccccc2)N=CC2C(=O)N(c3ccc(F)cc3)C(=O)C21 (racemic) | < 3 |  | 4.57 |  |
| CCOP(=O)(OCC)C1N=CC2C(=O)N(c3ccccc3)C(=O)C21 (racemic) | 7.73 | 3.39 | 9.55 |  |
| CCOP(=O)(OCC)C1(c2ccccc2)N=CC2C(=O)N(c3ccc(Br)cc3)C(=O)C21 (racemic) | < 3 |  |  |  |
| CCOP(=O)(OCC)C1(c2ccccc2)N=CC2C(=O)N(c3cccc(Cl)c3)C(=O)C21 (racemic) | < 3 |  |  |  |
| CCOP(=O)(OCC)C1(c2ccc(OC)cc2)N=CC2C(=O)N(c3ccc(F)c(Cl)c3)C(=O)C21 (racemic) | 7.87 |  | > 1000 | Ratio pKi [8]: 74100 |
